These results are taken from ChEMBL document CHEMBL1152960 (Bioorg Med Chem, 2009).

One test has as its target Adenosine receptor A2a (Homo sapiens, UniProt P29274). The test is described as follows: biochemical.
Another test addresses T1, Adenosine receptor A1 (Homo sapiens, UniProt P30542).
T1 sequence (P30542 whole entry): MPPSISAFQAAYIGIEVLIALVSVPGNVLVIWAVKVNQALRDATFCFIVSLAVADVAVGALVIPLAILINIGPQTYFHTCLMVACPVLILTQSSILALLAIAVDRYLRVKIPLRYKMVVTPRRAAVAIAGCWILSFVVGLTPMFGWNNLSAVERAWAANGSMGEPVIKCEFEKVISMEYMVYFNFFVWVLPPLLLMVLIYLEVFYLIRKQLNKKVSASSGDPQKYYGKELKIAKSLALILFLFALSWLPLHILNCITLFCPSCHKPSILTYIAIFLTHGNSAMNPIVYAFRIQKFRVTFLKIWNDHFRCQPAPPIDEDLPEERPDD
The test is described as follows: Displacement of [3H]DPCPX from human recombinant adenosine A1 receptor expressed in HEK293T cells by scintillation counting. Format: cell-based, HEK-293T.

The next test has as its target T2, Adenosine receptor A3 (Homo sapiens, UniProt P0DMS8).
T2 sequence (P0DMS8 whole entry): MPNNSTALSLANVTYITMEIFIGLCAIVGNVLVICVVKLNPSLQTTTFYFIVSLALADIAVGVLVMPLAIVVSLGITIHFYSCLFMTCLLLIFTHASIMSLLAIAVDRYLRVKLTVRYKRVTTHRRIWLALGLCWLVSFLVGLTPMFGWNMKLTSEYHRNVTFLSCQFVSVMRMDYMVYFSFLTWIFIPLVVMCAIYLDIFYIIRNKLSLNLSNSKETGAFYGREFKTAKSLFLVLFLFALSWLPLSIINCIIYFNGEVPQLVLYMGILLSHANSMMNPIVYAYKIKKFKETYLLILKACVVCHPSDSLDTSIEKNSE
The test is described as follows: Displacement of [3H]NECA from human recombinant adenosine A3 receptor expressed in HEK293T cells by scintillation counting. It is filed as cell-based, HEK-293T.

Test [1] concerns the target T3, Adenosine receptor A3 (Homo sapiens) (UniProt P0DMS8).
T3 sequence (whole entry): T2 sequence (P0DMS8 whole entry)
The test is described as follows: Inhibition of [3H]NECA binding to human recombinant adenosine A3 receptor expressed in HEK293T cells at 100 uM by scintillation counting. The following applies: HEK-293T. It is filed as cell-based.

Structures are written as SMILES.

Sequence of Adenosine receptor A2a (P29274 whole entry): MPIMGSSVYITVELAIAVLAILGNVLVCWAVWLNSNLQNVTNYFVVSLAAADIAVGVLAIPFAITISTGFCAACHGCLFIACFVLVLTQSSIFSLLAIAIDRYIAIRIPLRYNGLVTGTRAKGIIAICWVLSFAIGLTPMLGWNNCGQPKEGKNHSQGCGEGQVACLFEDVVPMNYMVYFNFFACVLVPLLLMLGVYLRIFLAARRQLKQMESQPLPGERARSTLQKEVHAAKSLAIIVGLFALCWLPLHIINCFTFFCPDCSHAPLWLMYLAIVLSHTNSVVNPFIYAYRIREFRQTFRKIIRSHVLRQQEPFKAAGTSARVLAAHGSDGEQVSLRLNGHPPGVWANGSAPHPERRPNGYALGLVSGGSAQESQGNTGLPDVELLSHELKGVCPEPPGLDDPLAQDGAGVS
Description for Adenosine receptor A2a: Displacement of [3H]CGS21680 from human recombinant adenosine A2A receptor expressed in HEK293T cells by scintillation counting

In general, Ki refers to the dissociation constant of the complex between target and ligand, obtained from inhibition or displacement. On to `Cn1c(=O)c2[nH]c3cccnc3c2n(C)c1=O`, for which the figures for the Ki at Adenosine receptor A2a, on Adenosine receptor A1 and on Adenosine receptor A3 were 893 nM, 379 nM and 13.9 nM, respectively.

Regarding `CCCn1c(=O)c2[nH]c3cccnc3c2n(CCC)c1=O`, the Ki at Adenosine receptor A2a came to 570 nM; on Adenosine receptor A1, 132 nM; at Adenosine receptor A3, 16.8 nM.

On to `CCCOc1cncc2[nH]c3c(=O)n(CCC)c(=O)n(CCC)c3c12`, for which the Ki on Adenosine receptor A2a turned out to be 164 nM; at Adenosine receptor A1, 346 nM; at Adenosine receptor A3, 3.82 nM.

Regarding `CCCOc1cnc2c(c1)[nH]c1c(=O)n(CCC)c(=O)n(CCC)c12`, the Ki at Adenosine receptor A2a was determined as 1470 nM; on Adenosine receptor A1, 921 nM; on Adenosine receptor A3, 209 nM.

Take `Cn1c(=O)c2[nH]c3cnccc3c2n(C)c1=O`: the results for the Ki on Adenosine receptor A2a, on Adenosine receptor A1 and on Adenosine receptor A3 were 10100 nM, 11700 nM and 526 nM, respectively.

As to `CCCn1c(=O)c2[nH]c3cnccc3c2n(CCC)c1=O`, the values for the Ki on Adenosine receptor A2a, at Adenosine receptor A1 and at Adenosine receptor A3 were 3630 nM, 1410 nM and 290 nM, respectively.

One may read the inhibition as the relative decrease from the control value, in per cent. As for `Cn1c(=O)c2c(ncn2C)n(C)c1=O`, the inhibition in test [1] worked out at 9%.
